Measurements: US11208412B2 (DAEGU-GYEONGBUK MEDICAL INNOVATION FOUNDATION, priority 2017, dated 2021)

Experiments:
Assay in all cases: Kinase selectivity, DiscoverX scanMAX Kinase assay panel (% control)
Type in all cases: binding
[1] = molecular target: T1, kinases of the scanMAX Kinase assay panel (Homo sapiens, UniProt Q9P2K8, S808G); details: GCN2(Kin.Dom.2, S808G); 1 uM
T1 construct: purchased DiscoverX Co. (contract measurement) scanMAX Kinase assay panel
Method in brief: (§1)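 Each enzyme is treated with drug at 1 uM in DMSO, then signal is scaled between a positive control (0%) and DMSO (100%) to give % control. Kinases with % control under 35% are scored as inhibited.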

[2] = molecular target: T2, kinases of the scanMAX Kinase assay panel (Homo sapiens, UniProt P78356); details: PIP5K2B; 1 uM
T2 construct: purchased DiscoverX Co. (contract measurement) scanMAX Kinase assay panel
T2 sequence (P78356 1-416): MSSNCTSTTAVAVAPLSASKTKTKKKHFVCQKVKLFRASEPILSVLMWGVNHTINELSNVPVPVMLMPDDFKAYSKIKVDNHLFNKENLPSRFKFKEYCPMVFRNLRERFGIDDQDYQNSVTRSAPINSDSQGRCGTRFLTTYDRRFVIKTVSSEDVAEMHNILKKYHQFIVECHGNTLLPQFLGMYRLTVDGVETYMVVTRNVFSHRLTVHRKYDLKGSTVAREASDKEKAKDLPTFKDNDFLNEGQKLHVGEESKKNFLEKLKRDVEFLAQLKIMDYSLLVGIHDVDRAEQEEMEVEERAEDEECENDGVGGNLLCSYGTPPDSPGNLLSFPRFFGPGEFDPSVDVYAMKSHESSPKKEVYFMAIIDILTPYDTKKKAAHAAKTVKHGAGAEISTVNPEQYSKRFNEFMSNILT
Method in brief: as §1

[3] = molecular target: T3, kinases of the scanMAX Kinase assay panel (Homo sapiens, UniProt P17612); details: PKAC-alpha; 1 uM
T3 construct: purchased DiscoverX Co. (contract measurement) scanMAX Kinase assay panel
Method in brief: as §1

[4] = molecular target: T4, kinases of the scanMAX Kinase assay panel (Homo sapiens, UniProt P51617); details: IRAK1; 1 uM
T4 construct: purchased DiscoverX Co. (contract measurement) scanMAX Kinase assay panel
Method in brief: as §1

[5] = molecular target: T5, kinases of the scanMAX Kinase assay panel (Homo sapiens, UniProt P22455); details: FGFR4; 1 uM
T5 construct: purchased DiscoverX Co. (contract measurement) scanMAX Kinase assay panel
Method in brief: as §1

[6] = molecular target: T6, kinases of the scanMAX Kinase assay panel (Homo sapiens, UniProt P53355); details: DAPK1; 1 uM
T6 construct: purchased DiscoverX Co. (contract measurement) scanMAX Kinase assay panel
Method in brief: as §1

[7] = molecular target: T7, kinases of the scanMAX Kinase assay panel (Homo sapiens, UniProt Q9UBE8); details: NLK; 1 uM
T7 construct: purchased DiscoverX Co. (contract measurement) scanMAX Kinase assay panel
T7 sequence (Q9UBE8 1-527): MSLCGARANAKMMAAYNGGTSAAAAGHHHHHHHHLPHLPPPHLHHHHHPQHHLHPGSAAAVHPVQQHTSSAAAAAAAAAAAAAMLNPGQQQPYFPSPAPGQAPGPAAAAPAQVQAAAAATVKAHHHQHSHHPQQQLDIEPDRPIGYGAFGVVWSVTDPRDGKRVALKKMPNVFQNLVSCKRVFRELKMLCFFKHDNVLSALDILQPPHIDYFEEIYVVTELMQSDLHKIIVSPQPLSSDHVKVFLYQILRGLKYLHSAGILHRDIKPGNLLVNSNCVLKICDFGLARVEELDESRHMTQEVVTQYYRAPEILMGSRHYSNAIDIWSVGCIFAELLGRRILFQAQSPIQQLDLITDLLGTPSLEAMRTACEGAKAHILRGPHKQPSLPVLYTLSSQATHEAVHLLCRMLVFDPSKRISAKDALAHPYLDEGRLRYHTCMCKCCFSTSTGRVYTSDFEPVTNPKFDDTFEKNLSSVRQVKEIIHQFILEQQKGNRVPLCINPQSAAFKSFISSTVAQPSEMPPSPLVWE
Method in brief: as §1

[8] = molecular target: T8, kinases of the scanMAX Kinase assay panel (Homo sapiens, UniProt P07948); details: LYN; 1 uM
T8 construct: purchased DiscoverX Co. (contract measurement) scanMAX Kinase assay panel
T8 sequence (P07948 whole entry): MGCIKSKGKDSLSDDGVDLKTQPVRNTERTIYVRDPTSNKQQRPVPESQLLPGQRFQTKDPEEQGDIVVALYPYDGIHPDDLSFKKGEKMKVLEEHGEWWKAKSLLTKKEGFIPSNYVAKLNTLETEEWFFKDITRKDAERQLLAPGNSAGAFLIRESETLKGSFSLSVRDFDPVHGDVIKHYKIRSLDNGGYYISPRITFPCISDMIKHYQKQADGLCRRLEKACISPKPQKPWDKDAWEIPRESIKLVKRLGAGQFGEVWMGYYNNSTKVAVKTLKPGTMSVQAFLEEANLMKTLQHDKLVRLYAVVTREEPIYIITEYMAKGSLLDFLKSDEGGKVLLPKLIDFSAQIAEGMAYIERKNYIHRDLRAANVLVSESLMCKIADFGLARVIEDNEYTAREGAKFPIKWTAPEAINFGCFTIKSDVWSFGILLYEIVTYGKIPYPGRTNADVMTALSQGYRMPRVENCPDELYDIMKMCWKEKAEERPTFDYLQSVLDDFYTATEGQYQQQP
Method in brief: as §1

[9] = molecular target: T9, kinases of the scanMAX Kinase assay panel (Homo sapiens, UniProt Q15759); details: p38-beta; 1 uM
T9 construct: purchased DiscoverX Co. (contract measurement) scanMAX Kinase assay panel
T9 sequence (Q15759 whole entry): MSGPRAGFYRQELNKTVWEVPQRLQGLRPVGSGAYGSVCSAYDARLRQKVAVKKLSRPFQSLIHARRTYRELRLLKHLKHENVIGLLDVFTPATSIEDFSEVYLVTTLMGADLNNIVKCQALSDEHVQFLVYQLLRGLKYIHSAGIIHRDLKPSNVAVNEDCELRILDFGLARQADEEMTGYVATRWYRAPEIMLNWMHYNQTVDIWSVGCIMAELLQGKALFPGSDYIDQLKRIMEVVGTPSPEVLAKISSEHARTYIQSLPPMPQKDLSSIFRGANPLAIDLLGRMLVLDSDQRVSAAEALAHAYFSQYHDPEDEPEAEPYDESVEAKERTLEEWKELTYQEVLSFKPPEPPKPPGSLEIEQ
Method in brief: as §1

[10] = molecular target: T10, kinases of the scanMAX Kinase assay panel (Homo sapiens, UniProt P42336, E545K); details: PIK3CA(E545K); 1 uM
T10 construct: purchased DiscoverX Co. (contract measurement) scanMAX Kinase assay panel
T10 sequence (P42336 whole entry E545K): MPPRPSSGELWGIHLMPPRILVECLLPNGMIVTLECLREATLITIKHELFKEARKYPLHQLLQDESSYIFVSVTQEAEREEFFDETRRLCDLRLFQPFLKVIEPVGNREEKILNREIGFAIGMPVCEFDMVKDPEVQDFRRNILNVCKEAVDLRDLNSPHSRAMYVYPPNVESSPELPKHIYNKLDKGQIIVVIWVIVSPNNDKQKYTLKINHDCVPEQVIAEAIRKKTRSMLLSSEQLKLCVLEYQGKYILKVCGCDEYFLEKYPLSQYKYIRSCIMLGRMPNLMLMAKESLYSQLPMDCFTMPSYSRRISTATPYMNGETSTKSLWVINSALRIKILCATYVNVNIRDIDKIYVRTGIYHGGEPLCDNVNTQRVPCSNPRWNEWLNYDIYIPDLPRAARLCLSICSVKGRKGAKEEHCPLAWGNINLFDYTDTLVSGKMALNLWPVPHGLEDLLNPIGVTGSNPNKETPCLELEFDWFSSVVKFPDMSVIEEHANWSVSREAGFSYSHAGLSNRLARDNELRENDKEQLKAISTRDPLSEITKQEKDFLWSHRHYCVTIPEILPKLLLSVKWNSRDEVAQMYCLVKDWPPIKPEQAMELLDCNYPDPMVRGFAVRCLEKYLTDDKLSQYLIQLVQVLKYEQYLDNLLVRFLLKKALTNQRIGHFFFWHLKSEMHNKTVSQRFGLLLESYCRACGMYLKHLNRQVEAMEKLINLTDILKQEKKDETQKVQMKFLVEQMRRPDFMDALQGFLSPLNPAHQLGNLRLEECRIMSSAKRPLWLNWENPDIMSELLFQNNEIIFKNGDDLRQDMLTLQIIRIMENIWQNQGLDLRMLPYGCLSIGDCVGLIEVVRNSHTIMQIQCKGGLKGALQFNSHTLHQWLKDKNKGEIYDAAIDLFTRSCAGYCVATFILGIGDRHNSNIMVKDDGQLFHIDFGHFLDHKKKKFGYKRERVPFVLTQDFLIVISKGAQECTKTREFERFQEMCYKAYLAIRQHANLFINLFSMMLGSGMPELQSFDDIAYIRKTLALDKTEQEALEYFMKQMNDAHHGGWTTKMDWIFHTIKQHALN
Method in brief: as §1

[11] = molecular target: T11, kinases of the scanMAX Kinase assay panel (Homo sapiens, UniProt Q9HAZ1); details: CLK4; 1 uM
T11 construct: purchased DiscoverX Co. (contract measurement) scanMAX Kinase assay panel
T11 sequence (Q9HAZ1 whole entry): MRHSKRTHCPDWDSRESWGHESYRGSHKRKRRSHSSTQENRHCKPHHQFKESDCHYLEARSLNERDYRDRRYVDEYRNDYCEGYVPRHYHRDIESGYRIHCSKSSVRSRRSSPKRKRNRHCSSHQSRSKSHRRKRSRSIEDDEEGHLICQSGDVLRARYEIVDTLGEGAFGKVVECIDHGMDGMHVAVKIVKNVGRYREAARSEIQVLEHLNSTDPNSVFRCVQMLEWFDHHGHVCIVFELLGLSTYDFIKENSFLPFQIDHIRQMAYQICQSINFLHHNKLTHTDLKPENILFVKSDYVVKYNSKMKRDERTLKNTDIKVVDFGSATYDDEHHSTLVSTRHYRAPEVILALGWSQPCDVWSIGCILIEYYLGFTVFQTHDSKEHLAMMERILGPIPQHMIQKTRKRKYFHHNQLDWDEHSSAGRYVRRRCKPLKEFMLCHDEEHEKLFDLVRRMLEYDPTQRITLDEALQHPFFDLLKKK
Method in brief: as §1

[12] = molecular target: T12, kinases of the scanMAX Kinase assay panel (Homo sapiens, UniProt P50613); details: CDK7; 1 uM
T12 construct: purchased DiscoverX Co. (contract measurement) scanMAX Kinase assay panel
T12 sequence (P50613 whole entry): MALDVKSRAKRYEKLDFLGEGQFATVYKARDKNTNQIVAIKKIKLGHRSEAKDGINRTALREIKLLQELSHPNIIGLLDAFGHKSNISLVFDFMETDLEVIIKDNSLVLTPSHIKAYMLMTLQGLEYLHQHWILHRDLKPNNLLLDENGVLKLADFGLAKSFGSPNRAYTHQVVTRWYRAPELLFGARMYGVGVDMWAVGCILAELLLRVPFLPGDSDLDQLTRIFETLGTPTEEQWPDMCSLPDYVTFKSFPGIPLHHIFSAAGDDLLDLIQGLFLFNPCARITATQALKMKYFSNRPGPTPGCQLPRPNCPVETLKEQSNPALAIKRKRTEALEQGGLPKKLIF
Method in brief: as §1

[13] = molecular target: T13, kinases of the scanMAX Kinase assay panel (Homo sapiens, UniProt Q9Y6R4); details: MAP3K4; 1 uM
T13 construct: purchased DiscoverX Co. (contract measurement) scanMAX Kinase assay panel
T13 sequence (Q9Y6R4 whole entry): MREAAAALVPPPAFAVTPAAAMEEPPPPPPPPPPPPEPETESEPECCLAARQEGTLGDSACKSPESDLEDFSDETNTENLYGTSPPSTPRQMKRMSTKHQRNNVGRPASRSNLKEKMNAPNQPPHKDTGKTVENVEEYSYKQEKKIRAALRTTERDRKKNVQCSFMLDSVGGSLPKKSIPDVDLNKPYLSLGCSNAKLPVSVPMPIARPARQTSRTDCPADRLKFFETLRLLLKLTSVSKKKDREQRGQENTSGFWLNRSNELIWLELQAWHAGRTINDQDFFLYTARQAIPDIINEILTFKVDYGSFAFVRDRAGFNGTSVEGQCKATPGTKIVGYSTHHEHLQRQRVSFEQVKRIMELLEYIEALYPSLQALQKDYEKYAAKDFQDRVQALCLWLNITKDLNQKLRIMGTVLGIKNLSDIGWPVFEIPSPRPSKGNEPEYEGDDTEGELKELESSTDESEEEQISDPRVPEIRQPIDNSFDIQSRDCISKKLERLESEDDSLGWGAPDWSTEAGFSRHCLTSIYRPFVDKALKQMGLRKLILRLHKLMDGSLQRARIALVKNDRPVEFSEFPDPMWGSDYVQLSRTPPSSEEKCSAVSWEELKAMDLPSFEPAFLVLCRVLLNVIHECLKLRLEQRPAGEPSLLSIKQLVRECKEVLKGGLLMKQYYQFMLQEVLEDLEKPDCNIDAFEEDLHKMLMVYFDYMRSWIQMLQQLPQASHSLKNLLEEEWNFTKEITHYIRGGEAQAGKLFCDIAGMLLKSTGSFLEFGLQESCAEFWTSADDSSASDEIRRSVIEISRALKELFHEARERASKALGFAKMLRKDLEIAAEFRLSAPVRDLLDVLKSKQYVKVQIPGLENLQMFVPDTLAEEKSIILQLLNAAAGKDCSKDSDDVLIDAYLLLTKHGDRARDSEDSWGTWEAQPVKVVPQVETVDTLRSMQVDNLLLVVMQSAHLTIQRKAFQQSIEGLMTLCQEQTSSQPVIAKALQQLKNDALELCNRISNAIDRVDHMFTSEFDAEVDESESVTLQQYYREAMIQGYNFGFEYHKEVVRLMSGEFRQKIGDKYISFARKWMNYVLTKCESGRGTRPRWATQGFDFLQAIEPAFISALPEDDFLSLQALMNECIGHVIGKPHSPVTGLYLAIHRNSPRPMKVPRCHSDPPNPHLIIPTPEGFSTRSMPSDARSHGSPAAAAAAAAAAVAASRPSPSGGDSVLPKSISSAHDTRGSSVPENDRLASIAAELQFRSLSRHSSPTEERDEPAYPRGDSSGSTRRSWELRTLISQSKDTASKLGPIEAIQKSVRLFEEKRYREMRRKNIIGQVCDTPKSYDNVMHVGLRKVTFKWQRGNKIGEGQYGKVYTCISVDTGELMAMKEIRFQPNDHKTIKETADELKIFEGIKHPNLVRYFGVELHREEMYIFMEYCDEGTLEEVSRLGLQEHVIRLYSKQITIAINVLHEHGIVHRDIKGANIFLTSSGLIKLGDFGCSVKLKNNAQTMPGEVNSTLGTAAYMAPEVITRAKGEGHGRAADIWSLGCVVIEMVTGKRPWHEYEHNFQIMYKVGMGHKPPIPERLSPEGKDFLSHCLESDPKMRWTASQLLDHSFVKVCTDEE
Method in brief: as §1

[14] = molecular target: T14, kinases of the scanMAX Kinase assay panel (Homo sapiens, UniProt P49761); details: CLK3; 1 uM
T14 construct: purchased DiscoverX Co. (contract measurement) scanMAX Kinase assay panel
T14 sequence (P49761 whole entry): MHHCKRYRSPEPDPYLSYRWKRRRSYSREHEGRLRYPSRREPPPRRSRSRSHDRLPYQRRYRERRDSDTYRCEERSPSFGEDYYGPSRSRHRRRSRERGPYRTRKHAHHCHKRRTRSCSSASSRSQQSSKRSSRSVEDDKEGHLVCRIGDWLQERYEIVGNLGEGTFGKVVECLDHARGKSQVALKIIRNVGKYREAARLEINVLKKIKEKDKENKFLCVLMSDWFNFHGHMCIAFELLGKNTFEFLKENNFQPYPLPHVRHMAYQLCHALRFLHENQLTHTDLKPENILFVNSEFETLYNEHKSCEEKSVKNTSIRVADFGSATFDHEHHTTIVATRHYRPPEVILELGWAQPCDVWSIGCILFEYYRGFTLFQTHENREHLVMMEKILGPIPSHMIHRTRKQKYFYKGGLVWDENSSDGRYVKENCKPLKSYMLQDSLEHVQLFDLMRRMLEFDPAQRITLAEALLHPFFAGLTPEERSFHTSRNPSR
Method in brief: as §1

[15] = molecular target: T15, kinases of the scanMAX Kinase assay panel (Homo sapiens, UniProt O94768); details: DRAK2; 1 uM
T15 construct: purchased DiscoverX Co. (contract measurement) scanMAX Kinase assay panel
T15 sequence (O94768 1-372): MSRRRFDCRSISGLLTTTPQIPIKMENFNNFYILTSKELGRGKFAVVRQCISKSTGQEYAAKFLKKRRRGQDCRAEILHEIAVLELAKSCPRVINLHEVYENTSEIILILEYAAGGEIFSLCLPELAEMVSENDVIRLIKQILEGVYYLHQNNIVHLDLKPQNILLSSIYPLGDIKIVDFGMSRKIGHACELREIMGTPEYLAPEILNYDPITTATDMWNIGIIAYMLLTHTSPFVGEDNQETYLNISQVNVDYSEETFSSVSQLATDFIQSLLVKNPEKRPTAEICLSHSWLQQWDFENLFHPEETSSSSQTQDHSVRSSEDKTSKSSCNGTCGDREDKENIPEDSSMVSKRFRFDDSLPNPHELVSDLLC
Method in brief: as §1

Row | Structure (SMILES) | remaining binding at 1 µM [1] | remaining binding at 1 µM [2] | remaining binding at 1 µM [3] | remaining binding at 1 µM [4] | remaining binding at 1 µM [5] | remaining binding at 1 µM [6] | remaining binding at 1 µM [7] | remaining binding at 1 µM [8] | remaining binding at 1 µM [9] | remaining binding at 1 µM [10] | remaining binding at 1 µM [11] | remaining binding at 1 µM [12] | remaining binding at 1 µM [13] | remaining binding at 1 µM [14] | remaining binding at 1 µM [15]
1 | CNc1nc(Nc2ccc(C(=O)N3CCOCC3)cc2OC)nc2[nH]cc(C#N)c12 [Example 1, 2-((2-methoxy-4-(morpholine-4-carbonyl)phenyl)amino)-4-(methylamino)-7H-pyrrolo[2,3-d]pyrimidine-5-carbonitrile] | 93% | 100% | 100% | 75% | 89% | 8.5% | 98% | 90% | 98% | 80% | 3.4% | 67% | 100% | 70% | 13%
2 | CC1(Nc2nc(Nc3cnn([C@H]4CCN(C5COC5)C[C@@H]4F)c3Cl)nc3[nH]cc(C#N)c23)CC1 [Example 52, 2-((5-chloro-1-((3S,4S)-3-fluoro-1-(oxetane-3-yl)piperidine-4-yl)-1H-pyrazole-4-yl)amino)((1-methylcyclopropyl)amino)-7H-pyrrolo[2,3-d]pyrimidine-5-carbonitrile] | 33% | 0.45% | 100% | 1.4% | 31% | 12% | 75% | 36% | 92% | 68% | 1.4% | 19% | 77% | 27% | 1.2%
3 | CCNc1nc(Nc2ccc(C(=O)N3CCC(N4CCOCC4)CC3)cc2OC)nc2[nH]cc(C(F)(F)F)c12 [Example 104, (4-((4-(ethylamino)-5-(trifluoromethyl)-7H-pyrrolo[2,3-d]pyrimidine-2-yl)amino)-3-methoxyphenyl)(4-morpholinopiperidine-1-yl)methanone] | 64% | 100% | 100% | 100% | 38% | 49% | 69% | 100% | 100% | 90% | 4.1% | 48% | 97% | 4% | 15%
